Data on 30 compounds can be found in patent US11660293B2, “Substituted 2-azabicyclo[3.1.1]heptane and 2-azabicyclo[3.2.1]octane derivatives as orexin receptor antagonists” (Chronos Therapeutics Limited, priority 2017, dated 2023).

The target in assay [1] is human Orexin type 2 receptors (Homo sapiens (Human), UniProt O43614). Kind of assay: Intracellular calcium measurement (FLIPR), antagonism of Orexin-A at EC80 in CHO-hOX2 cells. Background: A change in cytosolic calcium serves as a functional read-out for many receptors and channels.
Assay [2] has as its target human Orexin type 1 receptors (Homo sapiens (Human), UniProt O43613). Kind of assay: Intracellular calcium measurement (FLIPR), antagonism of Orexin-A at EC80 in CHO-hOX1 cells.

The term Ki denotes a dissociation constant, usually derived from enzyme kinetics or from competition with a known ligand.

Chain of human Orexin type 1 receptors (O43613 whole entry): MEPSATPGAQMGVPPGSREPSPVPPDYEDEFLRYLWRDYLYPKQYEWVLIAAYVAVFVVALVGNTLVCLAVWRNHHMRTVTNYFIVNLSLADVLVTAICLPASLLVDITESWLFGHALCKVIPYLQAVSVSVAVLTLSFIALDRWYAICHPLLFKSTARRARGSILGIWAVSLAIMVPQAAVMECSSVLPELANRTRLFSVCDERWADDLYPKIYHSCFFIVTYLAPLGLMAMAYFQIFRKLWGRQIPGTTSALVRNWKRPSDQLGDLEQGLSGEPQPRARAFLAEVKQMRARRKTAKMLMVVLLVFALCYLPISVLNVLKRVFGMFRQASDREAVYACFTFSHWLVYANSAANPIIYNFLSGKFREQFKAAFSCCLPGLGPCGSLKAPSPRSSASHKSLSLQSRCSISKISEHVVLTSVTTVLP
Chain of human Orexin type 2 receptors (O43614 whole entry): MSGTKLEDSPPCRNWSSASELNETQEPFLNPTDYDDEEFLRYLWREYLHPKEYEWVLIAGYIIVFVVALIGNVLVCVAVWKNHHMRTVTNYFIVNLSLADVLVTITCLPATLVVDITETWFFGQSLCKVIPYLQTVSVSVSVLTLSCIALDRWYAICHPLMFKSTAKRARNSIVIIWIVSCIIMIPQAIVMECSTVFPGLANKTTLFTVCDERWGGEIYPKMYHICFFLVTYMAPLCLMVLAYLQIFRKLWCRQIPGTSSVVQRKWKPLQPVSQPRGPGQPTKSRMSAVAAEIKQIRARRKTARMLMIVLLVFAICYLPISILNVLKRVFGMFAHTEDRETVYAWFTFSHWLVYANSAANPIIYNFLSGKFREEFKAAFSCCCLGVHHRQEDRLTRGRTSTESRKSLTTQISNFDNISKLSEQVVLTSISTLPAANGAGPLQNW

For `Cc1ccc(-c2ncccn2)c(C(=O)N2C3CC(C3)C(C)C2COc2ccc(F)cc2)c1` (mixture of isomers) [Example 69, CIS/TRANS 3-(4-fluorophenoxymethyl)-4-methyl-2-[5-methyl-2-(pyrimidin-2-yl)benzoyl]-2-azabicyclo[3.1.1]heptane], the Ki in assay [1] was 295 nM; in assay [2], 12.9 nM.
On the same counts, the results for `Cc1nc(C(=O)N2C3CC(C3)C(C)C2COc2ccc(F)cn2)c(-c2ccccc2)s1` (mixture of isomers) [Example 77, CIS/TRANS 3-{[(5-fluoropyridin-2-yl)oxy]methyl}-4-methyl-2-(2-methyl-5-phenyl-1,3-thiazole-4-carbonyl)-2-azabicyclo[3.1.1]heptane] are over 1000 nM and 21.9 nM.
On the same counts, the results for `Cc1ccc(-c2ncccn2)c(C(=O)N2C3CC(C3)C(C)C2COc2ccc(F)cn2)n1` (mixture of isomers) [Example 78, CIS/TRANS 3-{[(5-fluoropyridin-2-yl)oxy]methyl}-4-methyl-2-[6-methyl-3-(pyrimidin-2-yl)pyridine-2-carbonyl]-2-azabicyclo[3.1.1]heptane] are 234 nM and 35.5 nM.
On the same counts, the results for `Cc1nc(C(=O)N2C3CC(C3)C(C)C2COc2nccc3ccccc23)c(-c2ccccc2)s1` (mixture of isomers) [Example 83] are 46.8 nM and 3.47 nM.
Turning to `Cc1nc(C(=O)N2C3CC(C3)C(C)C2COc2cnc3ccc(Cl)cc3n2)c(-c2ccccc2)s1` (mixture of isomers) [Example 84, CIS/TRANS 7-chloro-2-{[4-methyl-2-(2-methyl-5-phenyl-1,3-thiazole-4-carbonyl)-2-azabicyclo[3.1.1]heptan-3-yl]methoxy}quinoxaline], the values for the Ki in assay [1] and in assay [2] were 1860 nM and 75.9 nM, respectively.
With `Cc1nc(C(=O)N2C3CC(C3)C(C)C2COc2cc3ccccc3cn2)c(-c2ccccc2)s1` (mixture of isomers) [Example 85, CIS/TRANS 3-{[4-methyl-2-(2-methyl-5-phenyl-1,3-thiazole-4-carbonyl)-2-azabicyclo[3.1.1]heptan-3-yl]methoxy}isoquinoline], the results for the Ki in assay [1] and in assay [2] were 1050 nM and 6.31 nM, respectively.
`Cc1ccc(-c2nccs2)c(C(=O)N2C(COc3ccc(F)cc3)CC3CC2C3)n1` (racemic) [Example 4]: the results for the Ki in assay [1] and in assay [2] were 162 nM and 5.75 nM, respectively.
As for `Cc1ccc(-c2nccs2)c(C(=O)N2C(COc3ccc(F)cc3)CC3CC2C3)c1` (racemic) [Example 7], the Ki is 141 nM in assay [1] and 7.08 nM in assay [2].
Take `Cc1ccc(-n2nccn2)c(C(=O)N2C(COc3ccc(F)cc3)CC3CC2C3)c1` (racemic) [Example 10]: the inhibitory constant (Ki) in assay [1] was 347 nM; in assay [2] it was 14.8 nM.
Turning to `Cc1ccc(-c2ncccn2)c(C(=O)N2C(COc3ccc(F)cc3)CC3CC2C3)n1` (racemic) [Example 13], the figures for the Ki in assay [1] and in assay [2] were 170 nM and 7.76 nM, respectively.
In the same order, the values of `Cc1ccc(-c2ncccn2)c(C(=O)N2C(COc3ccc(F)cc3)CC3CC2C3)c1` (racemic) [Example 16] are 537 nM and 28.8 nM.
As for `Cc1ccc(-c2nccs2)c(C(=O)N2C(COc3ccc(F)cn3)CC3CC2C3)c1` (racemic) [Example 25], the figures for the Ki in assay [1] and in assay [2] were 209 nM and 30.2 nM, respectively.
On the same counts, the results for `Cc1ccc(-c2ncccn2)c(C(=O)N2C(COc3ccc(Cl)cn3)CC3CC2C3)c1` (racemic) [Example 32] are 513 nM and 72.4 nM.
On the same counts, the results for `Cc1ccc(-c2ncccn2)c(C(=O)N2C(COc3ccc(C(F)(F)F)cn3)CC3CC2C3)c1` (racemic) [Example 35] are 631 nM and 74.1 nM.
Consider `Cc1ccc(-c2ncccn2)c(C(=O)N2C(CCOc3ccc(F)cc3)CC3CC2C3)c1` (racemic) [Example 41], for which the Ki in assay [1] is 224 nM; in assay [2] it was 22.4 nM.
On the same counts, the results for `Cc1nc(C(=O)N2C(COc3ccc(F)cc3)CC3CC2C3)c(-c2ccccc2)s1` (single isomer, unassigned) [Example 3, (3S or 3R) 3-[(4-fluorophenoxy)methyl]-2-(2-methyl-5-phenyl-1,3-thiazole-4-carbonyl)-2-azabicyclo[3.1.1]heptane] are 81.3 nM and 2.34 nM.
In the same order, the values of `Cc1ccc(-c2nccs2)c(C(=O)N2C(COc3ccc(F)cc3)CC3CC2C3)n1` (single isomer, unassigned) [Example 6, (3S or 3R) 3-(4-fluorophenoxymethyl)-2-{[6-methyl-3-(1,3-thiazol-2-yl)pyridin-2-yl]carbonyl}-2-azabicyclo[3.1.1]heptane] are 93.3 nM and 5.13 nM.
As to `Cc1ccc(-c2nccs2)c(C(=O)N2C(COc3ccc(F)cc3)CC3CC2C3)c1` (single isomer, unassigned) [Example 9, (3S or 3R) 3-(4-fluorophenoxymethyl)-2-{[5-methyl-2-(1,3-thiazol-2-yl)phenyl]carbonyl}-2-azabicyclo[3.1.1]heptane], the Ki is 79.4 nM in assay [1] and 3.98 nM in assay [2].
In the same order, the values of `Cc1ccc(-n2nccn2)c(C(=O)N2C(COc3ccc(F)cc3)CC3CC2C3)c1` (single isomer, unassigned) [Example 12, (3S or 3R) 3-(4-fluorophenoxymethyl)-2-{[5-methyl-2-(2H-1,2,3-triazol-2-yl)phenyl]carbonyl}-2-azabicyclo[3.1.1]heptane] are 1050 nM and 27.5 nM.
`Cc1ccc(-c2ncccn2)c(C(=O)N2C(COc3ccc(F)cc3)CC3CC2C3)n1` (single isomer, unassigned) [Example 15, (3S or 3R) 3-(4-fluorophenoxymethyl)-2-{[6-methyl-3-(pyrimidin-2-yl)pyridin-2-yl]carbonyl}-2-azabicyclo[3.1.1]heptane]: the figures for the Ki in assay [1] and in assay [2] were 52.5 nM and 4.07 nM, respectively.
In the same order, the values of `Cc1ccc(-c2ncccn2)c(C(=O)N2C(COc3ccc(F)cc3)CC3CC2C3)c1` (single isomer, unassigned) [Example 17, (3S or 3R) 3-(4-fluorophenoxymethyl)-2-{[5-methyl-2-(pyrimidin-2-yl)phenyl]carbonyl}-2-azabicyclo[3.1.1]heptane] are 355 nM and 15.1 nM.
On the same counts, the results for `Cc1ccc(-c2ncccn2)c(C(=O)N2C(COc3ccc(F)cn3)CC3CC2C3)n1` (single isomer, unassigned) [Example 22, (3S or 3R) 3-{[(5-fluoropyridin-2-yl)oxy]methyl}-2-{[6-methyl-3-(pyrimidin-2-yl)pyridin-2-yl]carbonyl}-2-azabicyclo[3.1.1]heptane] are 174 nM and 34.7 nM.
On the same counts, the results for `Cc1ccc(-c2nccs2)c(C(=O)N2C(COc3ccc(F)cn3)CC3CC2C3)c1` (single isomer, unassigned) [Example 26, (3S or 3R) 3-{[(5-fluoropyridin-2-yl)oxy]methyl}-2-{[5-methyl-2-(1,3-thiazol-2-yl)phenyl]carbonyl}-2-azabicyclo[3.1.1]heptane] are 182 nM and 18.2 nM.
On to `Cc1ccc(-n2nccn2)c(C(=O)N2C(COc3ccc(F)cn3)CC3CC2C3)c1` (single isomer, unassigned) [Example 29, (3S or 3R) 3-{[(5-fluoropyridin-2-yl)oxy]methyl}-2-{[5-methyl-2-(2H-1,2,3-triazol-2-yl)phenyl]carbonyl}-2-azabicyclo[3.1.1]heptane], for which the Ki in assay [1] was 617 nM; in assay [2] it was 46.8 nM.
In the same order, the values of `Cc1ccc(-c2ncccn2)c(C(=O)N2C(COc3ccc(Cl)cn3)CC3CC2C3)c1` (single isomer, unassigned) [Example 33, (3S or 3R) 3-{[(5-chloropyridin-2-yl)oxy]methyl}-2-{[5-methyl-2-(pyrimidin-2-yl)phenyl]carbonyl}-2-azabicyclo[3.1.1]heptane] are 110 nM and 24 nM.
With `Cc1ccc(-c2ncccn2)c(C(=O)N2C(COc3ccc(C(F)(F)F)cn3)CC3CC2C3)c1` (single isomer, unassigned) [Example 36, (3S or 3R) 2-{[5-methyl-2-(pyrimidin-2-yl)phenyl]carbonyl}-3-({[5-(trifluoromethyl)pyridin-2-yl]oxy}methyl)-2-azabicyclo[3.1.1]heptane], the values for the Ki in assay [1] and in assay [2] were 200 nM and 67.6 nM, respectively.
On to `Cc1ccc(-c2ncccn2)c(C(=O)N2C(CCOc3ccc(F)cc3)CC3CC2C3)c1` (single isomer, unassigned) [Example 42, (3S or 3R) 3-[2-(4-fluorophenoxy)ethyl]-2-[5-methyl-2-(pyrimidin-2-yl)benzoyl]-2-azabicyclo[3.1.1]heptane], for which the Ki is 107 nM in assay [1] and 18.2 nM in assay [2].
In the same order, the values of `Cc1nc(C(=O)N2C3CC(C3)[C@@H](C)[C@@H]2COc2ccc(F)cc2)c(-c2ccccc2)s1` (single isomer, unassigned) [Example 67, (3S,4S or 3R,4R) 3-(4-fluorophenoxymethyl)-4-methyl-2-(2-methyl-5-phenyl-1,3-thiazole-4-carbonyl)-2-azabicyclo[3.1.1]heptane] are 562 nM and 1.38 nM.
In the same order, the values of `Cc1nc(C(=O)N2C3CC(C3)[C@H](C)[C@@H]2COc2ccc(F)cc2)c(-c2ccccc2)s1` (single isomer, unassigned) [Example 68, (3S,4R or 3R,4S) 3-(4-fluorophenoxymethyl)-4-methyl-2-(2-methyl-5-phenyl-1,3-thiazole-4-carbonyl)-2-azabicyclo[3.1.1]heptane] are 138 nM and 0.741 nM.
Consider `Cc1ccc(-c2ncccn2)c(C(=O)N2C3CC(C3)[C@H](C)[C@H]2COc2ccc(F)cc2)c1` (single isomer, unassigned) [Example 70, (3S,4S or 3R,4R) 3-(4-fluorophenoxymethyl)-4-methyl-2-[5-methyl-2-(pyrimidin-2-yl)benzoyl]-2-azabicyclo[3.1.1]heptane], for which the Ki in assay [1] is 2450 nM; in assay [2], 13.5 nM.
